Data on 40 molecules can be found in ChEMBL document CHEMBL2311456, “Synthesis and in vitro evaluation of potential anticancer activity of mono- and bis-1,2,3-triazole derivatives of bis-alkynes” (Eur J Med Chem, 2013).

pIC50: −log10 of the molar value. Bounds are passed on as bounds.

Assay [1] relates to B16. The experiment in a line: Cytotoxicity against mouse B16 cells after 48 hrs by MTT assay. The following applies: B16, 48 h. The format is functional, cell-based. A general note: Formazan colour is commonly taken as a measure of viable cells.
Assay [2] relates to B16. Description: Ratio of propargyl amine IC50 to compound IC50 for mouse B16 cells after 48 hrs by MTT assay. The format is functional.

What is called pIC50 is −log10 of the IC50, conventionally taken in molar units. Low readings indicate a high IC50, high ones a low IC50. In turn, `C#CCNC(=O)c1cn(CCOC(C)=O)nn1` showed a pIC50 with B16 [1] of under 4.00.

In the assay with B16 [1], `O=C(Nc1ccc(-c2cn(Cc3ccccc3)nn2)cc1)c1cn(Cc2ccccc2)nn1` gave a pIC50 of under 4.00.

With `CCOC(=O)Cn1cc(-c2ccc(NC(=O)c3cn(Cc4ccccc4)nn3)cc2)nn1`, the pIC50 in the assay on B16 [1] was 4.44.

In the assay with B16 [1], `CC(=O)OCCn1cc(-c2ccc(NC(=O)c3cn(Cc4ccccc4)nn3)cc2)nn1` showed a pIC50 of 4.88.

`CCOC(=O)Cn1cc(C(=O)Nc2ccc(-c3cn(CCOC(C)=O)nn3)cc2)nn1`: the pIC50 with B16 [1] is under 4.00.

With `CC(=O)OCCn1cc(C(=O)Nc2ccc(-c3cn(Cc4ccccc4)nn3)cc2)nn1`, the pIC50 in the assay on B16 [1] is under 4.00.

Take `CCOC(=O)Cn1cc(-c2ccc(NC(=O)c3cn(CCOC(C)=O)nn3)cc2)nn1`: the pIC50 in the assay with B16 [1] is under 4.00.

With `CC(=O)OCCn1cc(C(=O)Nc2ccc(-c3cn(CCOC(C)=O)nn3)cc2)nn1`, the pIC50 in the assay with B16 [1] was under 4.00.

Molecule `O=C(Nc1ccccc1)c1cn(Cc2ccccc2)nn1` gave a pIC50 with B16 [1] of 4.03.

Turning to `CCOC(=O)Cn1cc(C(=O)Nc2ccccc2)nn1`, the pIC50 with B16 [1] was under 4.00.

With `CC(=O)OCCn1cc(C(=O)Nc2ccccc2)nn1`, the pIC50 in the assay on B16 [1] is under 4.00.

The molecule `C#Cc1cccc(NC(=O)c2cn(Cc3ccccc3)nn2)c1` gave a pIC50 with B16 [1] of 4.84.

Turning to `C#Cc1cccc(NC(=O)c2cn(CC(=O)OCC)nn2)c1`, the pIC50 in the assay with B16 [1] is 4.04.

For the molecule `C#Cc1cccc(NC(=O)c2cn(CCOC(C)=O)nn2)c1`, the pIC50 in the assay on B16 [1] is 4.60.

Turning to `C#Cc1ccc(NC(=O)c2cn(Cc3ccccc3)nn2)cc1`, in the assay with B16 [1], the pIC50 is under 4.00.

Take `C#Cc1ccc(NC(=O)c2cn(CC(=O)OCC)nn2)cc1`: in the assay with B16 [1], the pIC50 was under 4.00.

Regarding `C#Cc1ccc(NC(=O)c2cn(CCOC(C)=O)nn2)cc1`, the pIC50 with B16 [1] is 4.10.

As for `O=C(NCc1cn(Cc2ccccc2)nn1)c1cn(Cc2ccccc2)nn1`, the pIC50 with B16 [1] was 6.52.

As for `CCOC(=O)Cn1cc(CNC(=O)c2cn(Cc3ccccc3)nn2)nn1`, the negative-log IC50 (pIC50) with B16 [1] was 4.46.

As for `CC(=O)OCCn1cc(CNC(=O)c2cn(Cc3ccccc3)nn2)nn1`, the pIC50 in the assay with B16 [1] is 4.55.

Molecule `O=C(Cn1cc(C(=O)NCc2cn(Cc3ccccc3)nn2)nn1)OCc1ccccc1` had a pIC50 in the assay with B16 [1] of 4.65.

In the case of `CCOC(=O)Cn1cc(CNC(=O)c2cn(CC(=O)OCc3ccccc3)nn2)nn1`, in the assay on B16 [1], the pIC50 was under 4.00.

In the assay on B16 [1], `CC(=O)OCCn1cc(CNC(=O)c2cn(CC(=O)OCc3ccccc3)nn2)nn1` had a pIC50 of under 4.00.

As for `CC(=O)OCCn1cc(C(=O)NCc2cn(Cc3ccccc3)nn2)nn1`, in the assay with B16 [1], the pIC50 was under 4.00.

The molecule `CCOC(=O)Cn1cc(CNC(=O)c2cn(CCOC(C)=O)nn2)nn1` showed a pIC50 in the assay with B16 [1] of under 4.00.

In the case of `CC(=O)OCCn1cc(CNC(=O)c2cn(CCOC(C)=O)nn2)nn1`, the pIC50 in the assay on B16 [1] is under 4.00.

Turning to `O=C(Nc1cccc(-c2cn(Cc3ccccc3)nn2)c1)c1cn(Cc2ccccc2)nn1`, the pIC50 in the assay with B16 [1] was 5.35.

In the assay with B16 [1], `CCOC(=O)Cn1cc(-c2cccc(NC(=O)c3cn(Cc4ccccc4)nn3)c2)nn1` gave a pIC50 of 4.68.

Consider `CC(=O)OCCn1cc(-c2cccc(NC(=O)c3cn(Cc4ccccc4)nn3)c2)nn1`, for which, in the assay on B16 [1], the pIC50 is 4.60.

On to `CCOC(=O)Cn1cc(C(=O)Nc2cccc(-c3cn(Cc4ccccc4)nn3)c2)nn1`, for which the pIC50 in the assay on B16 [1] was 4.69.

`CCOC(=O)Cn1cc(C(=O)Nc2cccc(-c3cn(CC(=O)OCC)nn3)c2)nn1`: in the assay with B16 [1], the pIC50 is under 4.00.

Take `CCOC(=O)Cn1cc(C(=O)Nc2cccc(-c3cn(CCOC(C)=O)nn3)c2)nn1`: the pIC50 with B16 [1] was under 4.00.

With `CC(=O)OCCn1cc(C(=O)Nc2cccc(-c3cn(Cc4ccccc4)nn3)c2)nn1`, the pIC50 with B16 [1] is under 4.00.

As to `CCOC(=O)Cn1cc(-c2cccc(NC(=O)c3cn(CCOC(C)=O)nn3)c2)nn1`, in the assay on B16 [1], the pIC50 is 4.20.

The molecule `CC(=O)OCCn1cc(C(=O)Nc2cccc(-c3cn(CCOC(C)=O)nn3)c2)nn1` gave a pIC50 in the assay on B16 [1] of under 4.00.

For the molecule `C#CCNC(=O)C#C`, the negative-log IC50 (pIC50) in the assay with B16 [1] is 4.42.

In the case of `C#CC(=O)Nc1cccc(C#C)c1`, in the assay with B16 [2], the “Ratio IC50” value is 127. The pIC50 in the assay on B16 [1] was 6.52.

In the case of `C#CC(=O)Nc1ccc(C#C)cc1`, the pIC50 in the assay with B16 [1] is 5.20.

`C#CCNC(=O)c1cn(Cc2ccccc2)nn1` showed a pIC50 in the assay with B16 [1] of 4.19.

For the molecule `C#CCNC(=O)c1cn(CC(=O)OCc2ccccc2)nn1`, the pIC50 in the assay with B16 [1] is under 4.00.
